According to BindingDB's records for doi:10.1021/jm701519h (Cns Biological Research, 2008):

Biological target: Cannabinoid receptor 2 (Homo sapiens, UniProt P34972)
Sequence (P34972 whole entry): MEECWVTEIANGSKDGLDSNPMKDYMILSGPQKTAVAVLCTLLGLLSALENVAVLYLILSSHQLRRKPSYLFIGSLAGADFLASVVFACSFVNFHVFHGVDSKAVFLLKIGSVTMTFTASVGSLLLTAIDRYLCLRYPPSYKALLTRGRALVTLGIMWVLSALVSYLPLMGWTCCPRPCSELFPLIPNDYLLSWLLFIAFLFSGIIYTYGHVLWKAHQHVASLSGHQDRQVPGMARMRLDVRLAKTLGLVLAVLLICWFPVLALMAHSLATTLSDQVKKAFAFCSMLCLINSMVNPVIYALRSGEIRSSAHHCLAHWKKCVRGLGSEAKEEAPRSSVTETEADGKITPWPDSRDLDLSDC

O=C1C(CCC(O)c2ccc(F)cc2)C(c2ccc(O)cc2)N1c1ccc(F)cc1 (stereo unspecified) [CAS_44450418]
Ki: 1820 nM
